For data set [1], the target named is covalently-crosslinked hexameric CA A14C/E45C/W184A/M185A (CA121) (Human immunodeficiency virus type 1 group M subtype B, UniProt P12493, A146C/E177C/M317A/W316A). The experiment in a line: Thermal shift assay (TSA), CA hexamer stability. The following applies: compound 20 μM, ΔTm=Tm−T0 vs DMSO. The format is binding, HIV-1.
A short description of data set [2]: Cytotoxicity in TZM-GFP cells (XTT). The class given is cell-based. To be noted: human, 72 hours exposure, XTT. How it is done:
(§1) The cytotoxicity of each compound was also determined in TZM-GFP cells. Cells were plated at a density of 1×10^4 cells per well in a 96-well plate and were continuously exposed to increasing concentrations of a compound for 72 hours. The number of viable cells in each well was determined using a Cell Proliferation Kit II (XTT), and 50% cytotoxicity concentration (CC50) values were determined. All the cell-based assays were conducted in duplicate and in at least two independent experiments. For the EC50 and CC50 dose responses, values were plotted in GraphPad Prism 5 and analyzed with the log (inhibitor) vs. normalized response-variable slope equation. Final values were calculated in each independent assay and the average values were determined. Statistical analysis (calculation of standard deviation) was performed by using Microsoft Excel.

A further data set concerns HIV-1. Nature of the data set: Anti-HIV-1 activity in TZM-GFP cells (viral LTR-activated GFP expression). The class given is cell-based. To be noted: for inhibition at 2 µM: Human immunodeficiency virus 1, 2 μM compound; for inhibition at 2 µM / inhibition at 20 µM: HIV-1 MOI=1; for inhibition at 20 µM: Human immunodeficiency virus 1, 20 μM compound; for EC50: Human immunodeficiency virus 1, HIV-1 strain MOI=1, GFP positive cells counted after 48 hours. How it is done:
The potency of HIV-1 inhibition by a compound was based on its inhibitory effect on viral LTR-activated GFP expression compared with that of compound-free (DMSO) controls. Briefly, TZM-GFP cells were plated at density of 1×10^4 cells per well in a 96-well plate. 24 hours later, media was replaced with increasing concentrations of compound. 24 hours post treatment, cells were exposed to an HIV-1 strain (MOI=1).
as §1

Broadly, the CC50 is the concentration at which the toxic effect on the cells reaches its halfway point. The inhibition is the percentage by which the read-out fell short of the control. Low values mean a response near the control, high ones a response far below the control. For the compound `CN(C(=O)[C@H](Cc1ccccc1)NC(=O)CN1C(=O)NC2(CCCCC2)C1=O)c1cccc(F)c1` [Example 26, 2-(2-(2,4-dioxo-1,3-diazaspiro[4.5]decan-3-yl)acetamido)-N-(3-fluorophenyl)-N-methyl-3-phenylpropanamide], the “TSA ΔTm (° C.)” value in data set [1] is 1.3 °C. This compound also returned a CC50 at 72 h in data set [2] of over 50 µM. In the data set with HIV-1, the inhibition at 2 µM amounted to 24% and 20 µM produced 98% inhibition.

The EC50 is the concentration that produces a half-maximal response. Higher therefore signals a less potent agent. With `CN(C(=O)[C@H](Cc1ccccc1)NC(=O)CNC(=O)c1ccccc1)c1ccc(Cl)cc1` [Example 36, (S)—N-(2-((1-((4-chlorophenyl)(methyl)amino)-1-oxo-3-phenylpropan-2-yl)amino)-2-oxoethyl)benzamide], in data set [1], the “TSA ΔTm (° C.)” value is 4.1 °C. The CC50 at 72 h in data set [2] is over 50 µM. This compound also showed an EC50 in the data set on HIV-1 of 0.88 ± 0.02 µM.

As for `Cc1ccc(C)c2c1NC(=O)C2CC(=O)N[C@@H](Cc1ccccc1)C(=O)N(C)c1ccc(Cl)cc1` (stereo partly drawn) [Example 8, (2S)—N-(4-chlorophenyl)-2-(2-(4,7-dimethyl-2-oxoindolin-3-yl)acetamido)-N-methyl-3-phenylpropanamide], in data set [1], the “TSA ΔTm (° C.)” value is −1.3 °C. Also, in data set [2], half-maximal cytotoxicity (CC50 at 72 h) was put at 63 ± 13 µM. Moreover, the EC50 with HIV-1 turned out to be 2.8 ± 0.1 µM.

As for `CN(C(=O)[C@H](Cc1ccccc1)NC(=O)CN1C(=O)NC2(CCCCC2)C1=O)c1ccccc1` [Example 22, 2-(2-(2,4-dioxo-1,3-diazaspiro[4.5]decan-3-yl)acetamido)-N-methyl-N,3-diphenylpropanamide], the “TSA ΔTm (° C.)” value in data set [1] was 1.3 °C. In data set [2], this compound showed a CC50 at 72 h of over 100 µM. In the data set with HIV-1, this compound came in with an EC50 of 8.9 ± 1.5 µM.

As for `CCN(C(=O)[C@H](Cc1ccccc1)NC(=O)Cc1ccc2ccccc2c1)c1ccccc1` [Example 15, (S)—N-ethyl-2-(2-(naphthalen-2-yl)acetamido)-N,3-diphenylpropanamide], the “TSA ΔTm (° C.)” value in data set [1] amounted to 4.3 °C. The same compound showed a CC50 at 72 h in data set [2] of under 50 µM. For the same compound, in the data set with HIV-1, testing at 2 µM gave an inhibition of 46% and the inhibition at 20 µM worked out at 97%.

On to `Cc1ccc(C)c2c1NC(=O)C2CC(=O)N[C@@H](Cc1ccccc1)C(=O)N(C)c1cccc(F)c1` (stereo partly drawn) [Example 7, (2S)-2-(2-(4,7-dimethyl-2-oxoindolin-3-yl)acetamido)-N-(3-fluorophenyl)-N-methyl-3-phenylpropanamide], for which, in data set [1], the “TSA ΔTm (° C.)” value is −1.8 °C. The half-maximal cytotoxic concentration (CC50) at 72 h in data set [2] came out at 60 ± 6 µM. In addition, in the data set on HIV-1, the half-maximal effective concentration (EC50) was determined as 5.2 ± 0.4 µM.

In the case of `CN(C(=O)[C@H](Cc1ccccc1)NC(=O)CN1C(=O)NC2(CCCCC2)C1=O)c1ccc(F)cc1` [Example 25, 2-(2-(2,4-dioxo-1,3-diazaspiro[4.5]decan-3-yl)acetamido)-N-(4-fluorophenyl)-N-methyl-3-phenylpropanamide], in data set [1], the “TSA ΔTm (° C.)” value amounted to 3.1 °C. The compound further yielded a CC50 at 72 h in data set [2] of over 50 µM. In the data set on HIV-1, the inhibition at 2 µM came to 9% and at 20 µM the inhibition was 99%.

`COc1ccc(N(C)C(=O)[C@H](Cc2ccccc2)NC(=O)CN2C(=O)NC3(CCCCC3)C2=O)cc1` [Example 23, 2-(2-(2,4-dioxo-1,3-diazaspiro[4.5]decan-3-yl)acetamido)-N-(4-methoxyphenyl)-N-methyl-3-phenylpropanamide]: in data set [1], the “TSA ΔTm (° C.)” value was determined as 1.8 °C. The compound further gave a CC50 at 72 h in data set [2] of over 100 µM. In the data set on HIV-1, this compound had an EC50 of 5.1 ± 2 µM.

As for `CCn1cc(CC(=O)N[C@@H](Cc2ccccc2)c2ncccc2-c2ccc(Cl)cc2)c2ccccc21` [Example 57, (S)-2-(1-ethyl-1H-indol-3-yl)-N-(2-phenyl-1-(3-(4-chlorophenyl)pyridin-2-yl)ethyl)acetamide], in data set [1], the “TSA ΔTm (° C.)” value came out at 6.6 ± 0.2 °C. The same compound gave a half-maximal effective concentration (EC50) in the data set on HIV-1 of 2.7 ± 0.2 µM.

Consider `Cc1cccc2c1NC(=O)C2CC(=O)N[C@@H](Cc1ccccc1)C(=O)N(C)c1ccccc1` (stereo partly drawn) [Example 1, (2S)—N-methyl-2-(2-(7-methyl-2-oxoindolin-3-yl)acetamido)-N,3-diphenylpropanamide], for which, in data set [1], the “TSA ΔTm (° C.)” value is −1.2 °C. Besides, the CC50 at 72 h in data set [2] was over 50 µM. In the data set with HIV-1, this compound showed an inhibition at 2 µM of 0% and an inhibition at 20 µM of 91%.

As for `Cc1cn(CC(=O)N[C@@H](Cc2ccccc2)C(=O)N(C)c2cccc(Cl)c2)c(=O)[nH]c1=O` [Example 45, (S)—N-(3-chlorophenyl)-N-methyl-2-(2-(5-methyl-2,4-dioxo-3,4-dihydropyrimidin-1(2H)-yl)acetamido)-3-phenylpropanamide], the “TSA ΔTm (° C.)” value in data set [1] stood at 0.6 °C. This compound gave a cytotoxic concentration (CC50) at 72 h in data set [2] of over 50 µM. In addition, in the data set with HIV-1, the inhibition at 2 µM was found to be 37% and the inhibition at 20 µM amounted to 95%.

For the compound `CN(C(=O)[C@H](Cc1ccccc1)NC(=O)CNC(=O)c1ccccc1)c1ccccc1` [Example 34, (S)—N-(2-((1-(methyl(phenyl)amino)-1-oxo-3-phenylpropan-2-yl)amino)-2-oxoethyl)benzamide], the “TSA ΔTm (° C.)” value in data set [1] turned out to be 1.3 °C. Further, the CC50 at 72 h in data set [2] was over 50 µM. In the data set on HIV-1, this compound displayed an inhibition at 2 µM of 15% and an inhibition at 20 µM of 96%.

In the case of `COc1ccc2[nH]cc(CC(=O)N[C@@H](Cc3ccccc3)c3nccn3-c3ccc(Br)cc3)c2c1` [Example 62, (S)-2-(5-methoxy-1H-indol-3-yl)-N-(2-phenyl-1-(1-(4-bromophenyl)-1H-imidazol-2-yl)ethyl)acetamide], the “TSA ΔTm (° C.)” value in data set [1] turned out to be 2.8 ± 0.3 °C. In the data set with HIV-1, the EC50 was determined as 3.5 ± 0.3 µM.

In the case of `O=C(Cc1c[nH]c2ccc(O)cc12)N[C@@H](Cc1ccccc1)c1ncccc1-c1ccc(Cl)cc1` [Example 56, (S)-2-(5-hydroxy-1H-indol-3-yl)-N-(2-phenyl-1-(3-(4-chlorophenyl)pyridin-2-yl)ethyl)acetamide], the “TSA ΔTm (° C.)” value in data set [1] amounted to 8.7 ± 0.3 °C. Also, the response with HIV-1 was half-maximal at 0.31 ± 0.07 µM (EC50).

For `O=C(Cc1c[nH]c2ccccc12)N[C@@H](Cc1ccccc1)c1ncccc1-c1ccc(Cl)cc1` [Example 54, (S)-2-(1H-indol-3-yl)-N-(2-phenyl-1-(3-(4-chlorophenyl)pyridin-2-yl)ethyl)acetamide], the “TSA ΔTm (° C.)” value in data set [1] was found to be 7.7 ± 0.2 °C. This compound yielded an EC50 with HIV-1 of 0.79 ± 0.25 µM.

As for `Cc1ccc(N(C)C(=O)[C@H](Cc2ccccc2)NC(=O)CNC(=O)c2ccccc2)cc1` [Example 35, (S)—N-(2-((1-(methyl(p-tolyl)amino)-1-oxo-3-phenylpropan-2-yl)amino)-2-oxoethyl)benzamide], in data set [1], the “TSA ΔTm (° C.)” value worked out at 5.0 °C. The same compound came in with a CC50 at 72 h in data set [2] of over 50 µM. Moreover, the EC50 with HIV-1 was 1.6 ± 0.02 µM.

As to `CCn1cc(CC(=O)N[C@@H](Cc2ccccc2)c2ncccc2-c2ccc(Br)cc2)c2ccccc21` [Example 60, (S)-2-(1-ethyl-1H-indol-3-yl)-N-(2-phenyl-1-(3-(4-bromophenyl)pyridin-2-yl)ethyl)acetamide], the “TSA ΔTm (° C.)” value in data set [1] was 6.3 ± 0.1 °C. The compound also came in with an EC50 with HIV-1 of 3.2 ± 0.3 µM.

Consider `CCN(C(=O)[C@H](Cc1ccccc1)NC(=O)CNC(=O)c1ccccc1)c1ccccc1` [Example 41, (S)—N-(2-((1-(ethyl(phenyl)amino)-1-oxo-3-phenylpropan-2-yl)amino)-2-oxoethyl)benzamide], for which, in data set [1], the “TSA ΔTm (° C.)” value was −2.5 °C. In addition, the CC50 at 72 h in data set [2] is over 50 µM. In the data set with HIV-1, this compound came in with a 50% effective concentration (EC50) of 2.5 ± 0.03 µM.

As to `COc1ccc2[nH]cc(CC(=O)N[C@@H](Cc3ccccc3)c3ncccc3-c3ccc(Cl)cc3)c2c1` [Example 55, (S)-2-(5-methoxy-1H-indol-3-yl)-N-(2-phenyl-1-(3-(4-chlorophenyl)pyridin-2-yl)ethyl)acetamide], in data set [1], the “TSA ΔTm (° C.)” value turned out to be 7.8 ± 0.3 °C. Also, the midpoint of the response in the data set with HIV-1, the EC50, lay at 1.4 ± 0.7 µM.

Consider `COc1ccc2[nH]cc(CC(=O)N[C@@H](Cc3ccccc3)c3nccn3-c3ccc(Cl)cc3)c2c1` [Example 61, (S)-2-(5-methoxy-1H-indol-3-yl)-N-(2-phenyl-1-(1-(4-chlorophenyl)-1H-imidazol-2-yl)ethyl)acetamide], for which the “TSA ΔTm (° C.)” value in data set [1] was 4.0 ± 0.3 °C. The same compound showed an EC50 with HIV-1 of 3.3 ± 0.03 µM.

In the case of `COc1ccc2[nH]cc(CC(=O)N[C@@H](Cc3ccccc3)c3nccn3-c3ccc(I)cc3)c2c1` [Example 63, (S)-2-(5-methoxy-1H-indol-3-yl)-N-(2-phenyl-1-(1-(4-iodophenyl)-1H-imidazol-2-yl)ethyl)acetamide], the “TSA ΔTm (° C.)” value in data set [1] is 2.7 ± 0.1 °C. The compound further displayed an EC50 with HIV-1 of 3.3 ± 0.2 µM.

With `CCn1cc(CC(=O)N[C@@H](Cc2ccccc2)c2ncccc2-c2ccc(Cl)cc2)c2cc(OC)ccc21` [Example 58, (S)-2-(1-ethyl-5-methoxy-1H-indol-3-yl)-N-(2-phenyl-1-(3-(4-chlorophenyl)pyridin-2-yl)ethyl)acetamide], the “TSA ΔTm (° C.)” value in data set [1] was determined as 5.9 ± 0.2 °C. The compound further gave an EC50 in the data set on HIV-1 of 3.6 ± 0.2 µM.

Regarding `COc1ccc2[nH]cc(CC(=O)N[C@@H](Cc3ccccc3)c3ncccc3-c3ccc(Br)cc3)c2c1` [Example 59, (S)-2-(5-methoxy-1H-indol-3-yl)-N-(2-phenyl-1-(3-(4-bromophenyl)pyridin-2-yl)ethyl)acetamide], the “TSA ΔTm (° C.)” value in data set [1] amounted to 6.3 ± 0.6 °C. The compound further showed an EC50 in the data set on HIV-1 of 2.1 ± 0.8 µM.

(Values after patent US11850247B2, “Antiviral compounds” (REGENTS OF THE UNIVERSITY OF MINNESOTA, priority 2020, dated 2023).)
